# Data: patent US5914319A, “Antithrombotic agents” (Eli Lilly and Company, priority 1995, dated 1999)
# Where a name gives a salt, the structure may show the parent alone.
# Key:
# Format in all cases: biochemical
# Human plasma [1] = assay: Human plasma anticoagulation, thrombin time (TT); conditions: concentration required to double the thrombin time, linear extrapolation
# Experimental: (§1) Dog plasma and rat plasma is obtained from conscious mixed-breed hounds (either sex, Hazelton-LRE, Kalamazoo, Mich., U.S.A.) or from anesthetized male Sprague-Dawley rats (Harlan Sprague-Dawley, Inc., Indianapolis, Ind., U.S.A.) by venipuncture into 3.8 percent citrate. Fibrinogen is prepared from in-date ACD human blood as the fraction I-2 according to previous procedures and specifications. […] Human fibrinogen is also purchased as 98 percent pure/plasmin free from American Diagnostica, Greenwich, Conn. Coagulation reagents ACTIN, Thromboplastin, and Human plasma are from Baxter Healthcare Corp., Dade Division, Miami, Fla. Bovine thrombin from Parke-Davis ([…], Mich.) is used for coagulation assays in plasma.
# (§2) Coagulation assay procedures are as previously described. […] A CoAScreener coagulation instrument (American LABor, Inc.) is used for all coagulation assay measurements. The prothrombin time (PT) is measured by adding 0.05 mL saline and 0.05 mL Thromboplastin-C reagent to 0.05 mL test plasma. The activated partial thromboplastin time (APTT) is measured by incubation of 0.05 mL test plasma with 0.05 mL Actin reagent for 120 seconds followed by 0.05 mL CaCl2 (0.02M). The thrombin time (TT) is measured by adding 0.05 mL saline and 0.05 mL thrombin (10 NIH units/mL) to 0.05 mL test plasma. The compounds of Formula I are added to human or animal plasma over a wide range of concentrations to determine prolongation effects on the APTT, PT, and TT assays. Linear extrapolations are performed to estimate the concentrations required to double the clotting time for each assay.
# Human plasma [2] = assay: Human plasma anticoagulation, activated partial thromboplastin time (APTT); conditions: concentration required to double the APTT, linear extrapolation
# Experimental: as §1, §2
# Human plasma [3] = assay: Human plasma anticoagulation, prothrombin time (PT); conditions: concentration required to double the PT, linear extrapolation
# Experimental: as §1, §2
SMILES,Human Plasma Anticoagulation 2× Clotting time (ng/mL) TT (Human plasma [1]),Human Plasma Anticoagulation 2× Clotting time (ng/mL) APTT (Human plasma [2]),Human Plasma Anticoagulation 2× Clotting time (ng/mL) PT (Human plasma [3])
"N=C(N)c1ccc(CNC(=O)[C@@H]2C[C@H](Oc3ccccc3)CN2C(=O)[C@H]2CCCCN2)cc1 (relative stereo) [Example 22, D-hPro-Pro(4-cis-PhO)-p-NHCH2 C6 H4 C(NH)NH2.2HCl]",170 ng/mL,"2,300 ng/mL","1,000 ng/mL"
"N=C(N)c1ccc(CNC(=O)[C@@H]2C[C@@H]3CCCC[C@@H]3N2C(=O)[C@H]2C[C@H]3CCCC[C@H]3CN2)cc1 (relative stereo) [Example 43, D-3-Piq-cis-Ohi-p-NHCH2 C6 H4 C(NH)NH2.2HCl]",280 ng/mL,"1,100 ng/mL",930 ng/mL
"CCS(=O)(=O)N[C@H](Cc1ccccc1)C(=O)N1[C@H](C(=O)NCc2ccc(C(=N)N)cc2)C[C@@H]2CCCC[C@@H]21 (relative stereo) [Example 45, EtSO2 -Phe-cis-Ohi-p-NHCH2 C6 H4 C(NH)NH2.HCl]",8 ng/mL,200 ng/mL,330 ng/mL
"N=C(N)c1ccc(CNC(=O)[C@@H]2C[C@@H]3CCCC[C@@H]3N2C(=O)[C@@H](Cc2ccccc2)NCC(=O)O)cc1 (relative stereo) [Example 47, HOOCCH2 -D-Phe-cis-Ohi-p-NHCH2 C6 H4 C(NH)NH2.HCl]",12. ng/mL,140 ng/mL,270 ng/mL
"Cl.N=C(N)c1cccc(CNC(=O)[C@@H]2CCCN2C(=O)[C@H](N)Cc2ccccc2)c1 [Example 16, D-Phe-Pro-m-NHCH2 C6 H4 C(NH)NH2.0.75HCl]",650 ng/mL,"8,600 ng/mL","8,500 ng/mL"
"N=C(N)c1ccc(CNC(=O)[C@@H]2CCCN2C(=O)[C@H]2C[C@H]3CCCC[C@H]3CN2)cc1 [Example 19, D-3-Piq-Pro-p-NHCH2 C6 H4 C(NH)NH2.3HCl]",58 ng/mL,300 ng/mL,540 ng/mL
"CCS(=O)(=O)N[C@H](Cc1ccccc1)C(=O)N1CCC[C@H]1C(=O)NCc1cccc(C(=N)N)c1 [Example 24, EtSO2 -D-Phe-Pro-m-NHCH2 --C6 H4 C(=NH)NH2.HCl]","1,000 ng/mL","25,900 ng/mL","25,000 ng/mL"
"N=C(N)c1cccc(CNC(=O)[C@@H]2CCCN2C(=O)[C@@H]2NCC[C@@H]3CCCC[C@@H]32)c1 [Example 25, D-1-Piq-Pro-m-NHCH2 --C6 H4 C(=NH)NH2.HCl]","1,430 ng/mL","34,600 ng/mL","40,400 ng/mL"
"CCS(=O)(=O)N[C@H](Cc1ccccc1)C(=O)N1CCC[C@H]1C(=O)NCCc1ccc(C(=N)N)cc1 [Example 26, EtSO2 -D-Phe-Pro-p-NHCH2 CH2 --C6 H4 C(=NH)NH2.HCl]",37 ng/mL,870 ng/mL,750 ng/mL
"CCS(=O)(=O)N[C@H](Cc1ccccc1)C(=O)N1CCC[C@H]1C(=O)NCCc1cccc(C(=N)N)c1.Cl [Example 27, EtSO2 -D-Phe-Pro-m-NHCH2 CH2 --C6 H4 C(=NH)NH2.HCl]","1,940 ng/mL","27,800 ng/mL","27,000 ng/mL"
"N=C(N)c1ccc(CCNC(=O)[C@@H]2CCCN2C(=O)[C@@H]2NCC[C@@H]3CCCC[C@@H]32)cc1 [Example 28, 1-Piq-Pro-p-NHCH2 CH2 --C6 H4 C(=NH)NH2.2HCl]",520 ng/mL,"8,100 ng/mL","8,300 ng/mL"
"N=C(N)c1cccc(CCNC(=O)[C@@H]2CCCN2C(=O)[C@@H]2NCC[C@@H]3CCCC[C@@H]32)c1 [Example 29, 1-Piq-Pro-m-NHCH2 CH2 --C6 H4 C(=NH)NH2.2HCl]",750 ng/mL,"9,800 ng/mL","15,800 ng/mL"
"CCS(=O)(=O)N[C@H](Cc1ccccc1)C(=O)N1CCC[C@H]1C(=O)NCCCc1ccc(C(=N)N)cc1 [Example 30, EtSO2 -D-Phe-Pro-p-NHCH2 CH2 CH2 --C6 H4 C(=NH)NH2.HCl]","1,000 ng/mL","14,000 ng/mL","14,400 ng/mL"
"CCS(=O)(=O)N[C@H](Cc1ccccc1)C(=O)N1CCC[C@H]1C(=O)NCCCc1cccc(C(=N)N)c1 [Example 31, EtSO2 -D-Phe-Pro-m-NHCH2 CH2 CH2 --C6 H4 C(=NH)NH2.HCl]","10,800 ng/mL","34,500 ng/mL","30,000 ng/mL"
"Cl.N=C(N)c1ccc(CCCNC(=O)C2CCCN2C(=O)C2NCCC3CCCCC32)cc1 (stereo not drawn) [Example 32, 1-Piq-Pro-p-NHCH2 CH2 CH2 --C6 H4 C(=NH)NH2.HCl]","3,100 ng/mL","28,500 ng/mL","47,800 ng/mL"
"N=C(N)c1cccc(CCCNC(=O)[C@@H]2CCCN2C(=O)[C@@H]2NCC[C@@H]3CCCC[C@@H]32)c1 [Example 33, 1-Piq-Pro-m-NHCH2 CH2 CH2 --C6 H4 C(=NH)NH2.HCl]","18,900 ng/mL","59,300 ng/mL","70,900 ng/mL"
"CCS(=O)(=O)N[C@H](Cc1ccccc1)C(=O)N1CCC[C@H]1C(=O)NCc1ccc(NC(=N)N)cc1 [Example 34, EtSO2 -D-Phe-Pro-p-NHCH2 C6 H4 NHC(NH)NH2.HCl]",530 ng/mL,"4,900 ng/mL","5,500 ng/mL"
"CCS(=O)(=O)N[C@H](Cc1ccccc1)C(=O)N1CCC[C@H]1C(=O)NCc1cccc(NC(=N)N)c1 [Example 36, EtSO2 -D-Phe-Pro-m-NHCH2 C6 H4 NHC(NH)NH2.HCl]","7,700 ng/mL","> 91,000 ng/mL","> 91,000 ng/mL"
"CCS(=O)(=O)N[C@H](Cc1ccccc1)C(=O)N1CCC[C@H]1C(=O)NCCc1cccc(N=C(N)N)c1.Cl [Example 37, EtSO2 -D-Phe-Pro-m-NHCH2 CH2 C6 H4 NHC(NH)NH2.HCl]","> 9,000 ng/mL","> 9,000 ng/mL","> 9,000 ng/mL"
"N=C(N)Nc1ccc(CNC(=O)[C@@H]2CCCN2C(=O)[C@@H]2NCC[C@@H]3CCCC[C@@H]32)cc1 [Example 38, D-1-Piq-Pro-p-NHCH2 C6 H4 NHC(NH)NH2.2HCl]",540 ng/mL,"6,100 ng/mL","11,100 ng/mL"
"N=C(N)Nc1ccc(CCNC(=O)[C@@H]2CCCN2C(=O)[C@@H]2NCC[C@@H]3CCCC[C@@H]32)cc1 [Example 39, D-1-Piq-Pro-p-NHCH2 CH2 C6 H4 NHC(NH)NH2.2HCl]","5,300 ng/mL","69,200 ng/mL","78,600 ng/mL"
"N=C(N)Nc1cccc(CNC(=O)[C@@H]2CCCN2C(=O)[C@@H]2NCC[C@@H]3CCCC[C@@H]32)c1 [Example 40, D-1-Piq-Pro-m-NHCH2 C6 H4 NHC(NH)NH2.2HCl]","35,100 ng/mL","> 91,000 ng/mL","> 91,000 ng/mL"
"N=C(N)Nc1cccc(CCNC(=O)[C@@H]2CCCN2C(=O)[C@@H]2NCC[C@@H]3CCCC[C@@H]32)c1 [Example 41, D-1-Piq-Pro-m-NHCH2 CH2 C6 H4 NHC(NH)NH2.2HCl]","82,200 ng/mL","> 91,000 ng/mL","> 91,000 ng/mL"
"Cl.N=C(N)c1ccc(CNC(=O)C2CC3CCCCC3N2C(=O)C(CC2CCCCC2)NCC(=O)O)cc1 [Example 49, HOOCCH2 -D-Cha-cis-Ohi-p-NHCH2 C6 H4 C(NH)NH2.HCl]",5 ng/mL,130 ng/mL,130 ng/mL
